Measured values published in BindingDB's records for patent US20250304549 (Sichuan Huiyu Pharmaceutical, 2025).

Key:
[1] = target: Lysine-specific histone demethylase 1A (Homo sapiens, UniProt O60341); test: In Vitro Enzyme Inhibition Assay - LSD1
Method: Initially, a master solution of 90 μM test compound (dissolved in DMSO) was prepared and sequentially diluted with DMSO in a 5-fold concentration gradient to yield a total of 9 concentrations of the compound working solution 1 (90×). Subsequently these 9 concentrations of working solution 1 were sequentially diluted by a 30-fold concentration gradient, i.e., 2 μL of working solution 1 was aspirated and added to 58 μL of Buffer, mixed on a vortex mixer with sufficient shaking to yield 9 concentrations of the screening test compound working solution 2 (3×). […] The mixture was incubated at room temperature for 15 minutes. […] Afterward, 2 μL of a termination solution (containing 5.4 mM 2-PCPA) was added to each well, mixed evenly, and incubated for another 15 minutes. Finally 4 μL of a pre-mixed antibody solution of Eu-anti H3K4 (PerkinElmer, TRF0404-D) and allophycocyanin (Prozyme, PJ27S) (1:1) was added to each well, mixed evenly, and incubated for 60 minutes.

Histone deacetylase 8 = target: T1, Histone deacetylase 8 (Homo sapiens, UniProt Q9BY41); test: In Vitro Enzyme Inhibition Assay - HDAC
T1 sequence (Q9BY41 whole entry): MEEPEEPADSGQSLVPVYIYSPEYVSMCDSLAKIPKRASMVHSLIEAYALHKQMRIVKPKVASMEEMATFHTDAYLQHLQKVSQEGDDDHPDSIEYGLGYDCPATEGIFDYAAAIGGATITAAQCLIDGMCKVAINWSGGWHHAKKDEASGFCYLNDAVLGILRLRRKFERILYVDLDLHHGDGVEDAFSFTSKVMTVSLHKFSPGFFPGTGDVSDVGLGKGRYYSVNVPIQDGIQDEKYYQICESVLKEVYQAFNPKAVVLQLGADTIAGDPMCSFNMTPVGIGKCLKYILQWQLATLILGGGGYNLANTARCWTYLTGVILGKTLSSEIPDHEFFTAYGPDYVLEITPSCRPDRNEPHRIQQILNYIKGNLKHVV
Method: (§1) The effect of the compound on the enzymatic activity of pan-HDAC and two isoforms (HDAC1 and HDAC8) was examined using the HDAC-Glo I/II Assay and Screening System assay to assess the level of inhibition of HDAC protease activity and selectivity in each isoform. The proteins and detection reagents were from the HDAC-Glo™ I/II Assay and Screening System (Promega). A 1 mM stock solution of the compound was prepared in DMSO and diluted in a 5-fold gradient to create a series of 8 concentrations, and a specific volume of the highest concentration was diluted 25 times with HDAC Buffer to obtain 4× working solution of the compound. […] The 384-well plate was then read on a multifunctional microplate reader, with the Luminescence channel selected to record Luminescence values (RLU).

Histone deacetylase 1/8 = Histone deacetylase 1/8 (Homo sapiens, UniProt Q13547+Q9BY41); test: In Vitro Enzyme Inhibition Assay - HDAC
Method: as §1

Histone deacetylase 1 = Histone deacetylase 1 (Homo sapiens, UniProt Q13547); test: In Vitro Enzyme Inhibition Assay - HDAC
Method: as §1

Histone deacetylase 1/8, sequence (Q13547 whole entry, one chain of several): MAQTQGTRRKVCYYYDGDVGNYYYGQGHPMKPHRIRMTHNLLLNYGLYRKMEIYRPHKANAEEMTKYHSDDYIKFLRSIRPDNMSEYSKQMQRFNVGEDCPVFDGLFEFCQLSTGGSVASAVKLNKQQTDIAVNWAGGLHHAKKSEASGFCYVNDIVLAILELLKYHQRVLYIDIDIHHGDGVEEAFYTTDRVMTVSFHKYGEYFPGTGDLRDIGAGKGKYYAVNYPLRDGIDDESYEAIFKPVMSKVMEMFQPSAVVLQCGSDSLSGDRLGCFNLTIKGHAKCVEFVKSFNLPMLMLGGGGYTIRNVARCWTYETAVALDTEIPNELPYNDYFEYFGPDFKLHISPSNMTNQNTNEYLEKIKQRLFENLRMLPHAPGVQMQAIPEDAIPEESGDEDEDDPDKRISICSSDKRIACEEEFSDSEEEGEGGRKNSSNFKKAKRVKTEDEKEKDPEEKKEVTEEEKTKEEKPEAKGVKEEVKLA
Histone deacetylase 1, sequence (Q13547 whole entry): as the sequence (Q13547 whole entry, one chain of several) above

Row | Compound | IC50 [1] [nM] | IC50 (Histone deacetylase 8) [nM] | IC50 (Histone deacetylase 1/8) [nM] | IC50 (Histone deacetylase 1) [nM]
1 | N#Cc1ccc(-c2c(-c3ccc(/C=C/C(=O)NO)c(O)c3)cnc(N3CCC(NCc4ccc(/C=C/C(=O)NO)cc4)CC3)c2C#N)cc1F [US20250304549, Example 90] | 8.01 | 63.5 | 19.5 | 10.6
2 | COc1ccc(-c2cnc(N3CCCC(NCc4ccc(/C=C/C(=O)NO)cc4)CC3)c(C#N)c2-c2ccc(C#N)c(F)c2)cc1O (stereo not given) [US20250304549, Example 149] | 0.54 | 58.9 | 1.05 | 0.5
3 | O=C(/C=C/c1ccc(CNC(=O)c2cc(CN[C@@H]3C[C@H]3c3ccc(F)cc3)nc(-c3ccc(-n4cccn4)cc3)n2)cc1)NO [US20250304549, Example 232] |  |  | 114 | 
4 | COc1ccc(-c2cnc(N3CCC(NCc4ccc(/C=C/C(=O)NO)cc4)CC3)c(F)c2-c2ccc(C#N)c(F)c2)cc1O [US20250304549, Example 76] |  | 157 | 1.59 | 
5 | COc1ccc(-c2cnc(N3CCC(NCc4ccc(/C=C/CC(=O)NO)cc4)CC3)c(C#N)c2-c2ccc(C#N)c(F)c2)cc1O [US20250304549, Example 169] | 0.42 | 1400 | 51.7 | 
6 | CNC1CCN(C2N=CC(c3ccc(OCCCCCCC(=O)NO)c(O)c3)=C(c3ccc(C#N)c(F)c3)C2C#N)CC1 (stereo not given) [US20250304549, Example 24] | 0.41 | 118 |  | 8.28
7 | COc1ccc(C2=C(C3C=NC(C#N)=CC3)C(C#N)C(N3CCC(NCc4ccc(/C=C/C(=O)NO)cc4)CC3)C=C2)cc1O (stereo not given) [US20250304549, Example 267] | 7.36 |  |  | 
8 | Cc1ccc(-c2cnc(N3CCC(NCc4cnc(/C=C/C(=O)NO)nc4)CC3)c(C#N)c2-c2ccc(C#N)c(F)c2)cc1O [US20250304549, Example 148] | 1.05 | 58.4 | 2.47 | 0.43
9 | COC1=C(OCCCCCCC(=O)NO)CC(C2=C(c3ccc(C#N)c(F)c3)N=C(N3CCC(N)CC3)N3C=CNC23)C=C1 (stereo not given) [US20250304549, Example 20] | 16.9 | 446 |  | 311
